Test results as given in PMC8421423, “Cellular model system to dissect the isoform-selectivity of Akt inhibitors” (Nature Communications, 2021).
Values joined by “and” are separate entries in the source; they are usually repeats but may differ in a detail not shown here. Equal entries are not always repeated. Where two headings read alike, the source gives them in different places.

How the values were obtained:
parental Ba/F3 cells = assay: CellTiter-Glo cell viability assay; assay type: cell-based, murine
Ba/F3^myr-Akt3 cells = assay: CellTiter-Glo cell viability assay; settings: for Log ratio EC50 [Akt] / EC50 [Akt], Akt3 / Akt2: cell viability assay Ba/F3 myr-Akt cells, log units
Ba/F3^myr-Akt1 cells = assay: CellTiter-Glo cell viability assay; settings: for Log ratio EC50 [Akt] / EC50 [Akt], Akt1 / Akt2: cell viability assay Ba/F3 myr-Akt cells, log units
Akt1 = Akt1 (Homo sapiens, UniProt P31749); assay: STK HTRF KinEASE activity-based assay (IC50); settings: for Log ratio IC50 [Akt] / IC50 [Akt], Akt1 / Akt2: biochemical activity based assay, log units
Akt1, sequence (P31749 whole entry): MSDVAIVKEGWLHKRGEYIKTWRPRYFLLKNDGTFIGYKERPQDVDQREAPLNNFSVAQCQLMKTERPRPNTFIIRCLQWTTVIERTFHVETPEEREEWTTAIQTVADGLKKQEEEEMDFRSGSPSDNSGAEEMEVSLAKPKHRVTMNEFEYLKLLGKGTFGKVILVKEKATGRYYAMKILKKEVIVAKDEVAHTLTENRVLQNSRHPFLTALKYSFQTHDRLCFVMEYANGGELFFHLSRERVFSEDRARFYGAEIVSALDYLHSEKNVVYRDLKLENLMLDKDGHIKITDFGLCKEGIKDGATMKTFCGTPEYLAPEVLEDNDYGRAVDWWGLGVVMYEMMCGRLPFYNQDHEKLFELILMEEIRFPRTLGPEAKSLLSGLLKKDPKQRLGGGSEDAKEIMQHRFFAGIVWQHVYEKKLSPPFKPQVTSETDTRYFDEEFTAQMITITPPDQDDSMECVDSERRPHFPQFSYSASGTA

Akt2 = Akt2 (Homo sapiens, UniProt P31751); assay: STK HTRF KinEASE activity-based assay (IC50)
Akt2, sequence (P31751 whole entry): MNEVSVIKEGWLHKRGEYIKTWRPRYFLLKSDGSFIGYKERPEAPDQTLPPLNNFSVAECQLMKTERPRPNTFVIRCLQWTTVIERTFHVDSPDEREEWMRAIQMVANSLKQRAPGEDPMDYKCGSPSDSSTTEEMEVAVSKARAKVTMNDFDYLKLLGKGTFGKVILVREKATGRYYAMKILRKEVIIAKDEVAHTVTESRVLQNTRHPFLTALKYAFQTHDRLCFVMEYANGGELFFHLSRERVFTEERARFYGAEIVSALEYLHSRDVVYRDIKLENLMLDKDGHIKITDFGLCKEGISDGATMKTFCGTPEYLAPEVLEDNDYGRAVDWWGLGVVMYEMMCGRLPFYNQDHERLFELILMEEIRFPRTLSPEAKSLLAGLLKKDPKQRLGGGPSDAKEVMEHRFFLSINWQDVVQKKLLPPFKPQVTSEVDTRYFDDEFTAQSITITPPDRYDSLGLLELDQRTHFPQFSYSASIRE

Ba/F3^myr-Akt2 cells = assay: CellTiter-Glo cell viability assay
Protocol: On day 0, cells were plated into white 384-well cell culture plates (Greiner Bio-One) using a Multidrop reagent dispenser (Thermo Fisher Scientific) at cell numbers that ensure linear and optimal luminescent signal intensity (Ba/F3myr-Akt1: 600 cells/well, Ba/F3myr-Akt2: 800 cells/well, Ba/F3myr-Akt3: 800 cells/well). […] Cell viability was analyzed on day 4 using the CellTiter-Glo Assay (Promega) as per the manufacturer’s instructions. […] All experimental points were measured in duplicates for each plate and were replicated in at least three plates.

Akt3 = Akt3 (Homo sapiens, UniProt Q9Y243); assay: STK HTRF KinEASE activity-based assay (IC50)
Akt3, sequence (Q9Y243 whole entry): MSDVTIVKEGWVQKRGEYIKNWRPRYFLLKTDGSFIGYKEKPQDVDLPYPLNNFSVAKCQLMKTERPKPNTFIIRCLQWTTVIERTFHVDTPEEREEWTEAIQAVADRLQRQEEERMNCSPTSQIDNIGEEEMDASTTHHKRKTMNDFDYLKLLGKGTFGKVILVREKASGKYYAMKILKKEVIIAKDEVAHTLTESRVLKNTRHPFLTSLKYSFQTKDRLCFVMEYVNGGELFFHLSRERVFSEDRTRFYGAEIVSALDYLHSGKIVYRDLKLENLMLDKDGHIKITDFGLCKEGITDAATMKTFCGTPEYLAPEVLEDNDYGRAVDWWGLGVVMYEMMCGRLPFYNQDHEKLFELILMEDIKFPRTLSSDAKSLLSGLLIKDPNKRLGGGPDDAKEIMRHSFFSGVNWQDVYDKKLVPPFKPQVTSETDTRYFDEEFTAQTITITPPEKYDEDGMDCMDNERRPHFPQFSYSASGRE

[1] = Mus musculus, BaF3, parental cells, mean of replicates, read-out: CTG BaF3, Mean
[2] = Mus musculus, BaF3, parental cells, single replicates, read-out: CTG BaF3, individual determinations
[3] = parental cells, single replicates, read-out: CTG BaF3, individual determinations
[4] = Mus musculus, read-out: CTG BaF3myr-Akt3, Mean, mean of replicates
[5] = Mus musculus, read-out: CTG BaF3myr-Akt3, individual determinations, single replicates
[6] = read-out: CTG BaF3myr-Akt3, individual determinations, single replicates
[7] = Mus musculus, read-out: CTG BaF3myr-Akt1, Mean, mean of replicates
[8] = Mus musculus, read-out: CTG BaF3myr-Akt1, individual determinations, single replicates
[9] = read-out: CTG BaF3myr-Akt1, individual determinations, single replicates
[10] = HTRF IC50 Akt1, Mean, mean of replicates
[11] = HTRF IC50 Akt1, individual determinations, single replicates
[12] = IC50 Akt1, HTRF, ATP at KM, 1 h preincubation
[13] = HTRF IC50 Akt2, Mean, mean of replicates
[14] = HTRF IC50 Akt2, individual determinations, single replicates
[15] = IC50 Akt2, HTRF, ATP at KM, 1 h preincubation
[16] = Mus musculus, read-out: CTG BaF3myr-Akt2, Mean, mean of replicates
[17] = read-out: CTG BaF3myr-Akt2, individual determinations, single replicates
[18] = HTRF IC50 Akt3, Mean, mean of replicates
[19] = HTRF IC50 Akt3, individual determinations, single replicates
[20] = IC50 Akt3, HTRF, ATP at KM, 1 h preincubation
[21] = read-out: HTRF IC50 Akt3, individual determinations, single replicates
[22] = Mus musculus, read-out: EC50 BaF3myr-Akt1, CTG
[23] = Mus musculus, read-out: CTG BaF3myr-Akt2, individual determinations, single replicates
[24] = Mus musculus, BaF3, CTG, parental BaF3 cell line, read-out: EC50 BaF3

Row | Structure (SMILES) | EC50 (parental Ba/F3 cells; [2]) [µM] | EC50 (parental Ba/F3 cells; [3]) | EC50 (Ba/F3^myr-Akt3 cells; [4]) [µM] | EC50 (Ba/F3^myr-Akt3 cells; [5]) [µM] | Log ratio EC50 [Akt] / EC50 [Akt], Akt3 / Akt2 (Ba/F3^myr-Akt3 cells) | EC50 (Ba/F3^myr-Akt3 cells; [6]) | EC50 (Ba/F3^myr-Akt1 cells; [7]) [µM] | EC50 (Ba/F3^myr-Akt1 cells; [8]) [µM] | Log ratio EC50 [Akt] / EC50 [Akt], Akt1 / Akt2 (Ba/F3^myr-Akt1 cells) | EC50 (Ba/F3^myr-Akt1 cells; [9]) | IC50 (Akt1; [10]) [µM] | IC50 (Akt1; [11]) | IC50 (Akt1; [12]) [µM] | Log ratio IC50 [Akt] / IC50 [Akt], Akt1 / Akt2 (Akt1) | IC50 (Akt2; [14]) | IC50 (Akt2; [15]) [µM] | EC50 (Ba/F3^myr-Akt2 cells; [16]) [µM] | EC50 (Ba/F3^myr-Akt2 cells; [17]) | IC50 (Akt3; [19]) | IC50 (Akt3; [20]) [µM] | also measured
1 | C=CC(=O)Nc1ccc2[nH]c(=O)n(C3CCN(Cc4ccc(-c5ncc(CN6CCCC6)cc5-c5ccccc5)cc4)CC3)c2c1 [compound 7] | 6.97 | 8.01 µM and 10.4 µM | 2.51 | 2.06 | -0.15 | 1.92 µM and 3.02 µM and 3.04 µM | 4.71 | 4.23 | 0.42 | 4.27 µM and 4.14 µM and 6.2 µM | 7.09 | 10 µM and 10.5 µM and 4.2 µM and 7.74 µM and 8.28 µM and 1.75 µM | 7.09 ± 3.44 | 1.17 | 0.535 µM and 0.351 µM and 0.552 µM | 0.479 ± 0.091 | 1.78 | 1.58 µM and 3 µM and 1.35 µM and 1.19 µM | > 20 µM | > 20 | EC50 (parental Ba/F3 cells; [1]): 8.46 µM; IC50 (Akt2; [13]): 0.479 µM; IC50 (Akt3; [18]): > 20 µM; IC50 (Akt3; [21]): > 20 µM
2 | C=CC(=O)Nc1ccc2[nH]c(=O)n(C3CCN(Cc4ccc(-c5ncc(C(=O)N6CCCC6)cc5-c5ccccc5)cc4)CC3)c2c1 [compound 8] | 17.3 | 20.7 µM and > 30 µM | 26.5 | 23.6 | -0.32 | 28.3 µM and 27 µM | > 30 | > 30 | 0.37 | > 30 µM | 4.57 | 4.34 µM and 4.53 µM and 4.82 µM | 4.57 ± 0.197 | 0.34 | 1.92 µM and 4.34 µM and 2.21 µM | 2.07 ± 0.147 | 12.8 | 12.4 µM and 14.1 µM | > 20 µM | > 20 | EC50 (Ba/F3^myr-Akt1 cells; [22]): > 30 µM; drop in affinity of the amide-linked version (7 vs. 8) (Akt2; Akt2, biochemical IC50): 5 fold; EC50 (Ba/F3^myr-Akt2 cells; [23]): 11.8 µM; IC50 (Akt3; [18]): > 20 µM; IC50 (Akt3; [21]): > 20 µM
3 | C=CC(=O)Nc1ccc2[nH]c(=O)n(C3CCN(Cc4ccc(-c5ncc(CNCC(C)C)cc5-c5ccccc5)cc4)CC3)c2c1 [compound 9] | > 30 | 28.5 µM and > 30 µM | 14.1 | 15.9 | -0.02 | 18.6 µM and 9.33 µM and 12.7 µM | > 30 | > 30 | 0.34 | > 30 µM | 5.93 | 6.84 µM and 5.56 µM and 5.38 µM | 5.93 ± 0.793 | 0.15 | 4.62 µM and 3.65 µM and 4.37 µM | 4.21 ± 0.412 | 13.6 | 12.5 µM | 6.9 µM and 10.4 µM and 7.86 µM | 8.37 ± 1.78 | EC50 (Ba/F3^myr-Akt1 cells; [22]): > 30 µM; IC50 (Akt2; [13]): 4.21 µM; EC50 (Ba/F3^myr-Akt2 cells; [23]): 17.2 µM; IC50 (Akt3; [18]): 8.37 µM
4 | C=CC(=O)Nc1ccc2[nH]c(=O)n(C3CCN(Cc4ccc(-c5ncc(Cc6cnn(C)c6)cc5-c5ccccc5)cc4)CC3)c2c1 [compound 12] | 17.5 | > 30 µM and 26.7 µM | 5.29 |  | -0.24 | 9.47 µM and 3.28 µM and 3.12 µM | 8.29 | 7.5 | 0.43 | 10.1 µM and 7.32 µM | 1.28 | 1.29 µM (2×) and 1.26 µM | 1.28 ± 0.018 | 0.71 | 0.27 µM and 0.352 µM and 0.233 µM | 0.251 ± 0.018 | 3.05 | 2.1 µM and 3.52 µM | 0.64 µM and 0.477 µM and 0.703 µM | 0.607 ± 0.095 | IC50 (Akt2; [13]): 0.251 µM; EC50 (Ba/F3^myr-Akt2 cells; [23]): 3.04 µM; IC50 (Akt3; [18]): 0.607 µM
5 | C=CC(=O)Nc1ccc2[nH]c(=O)n(C3CCN(Cc4ccc(-c5ncc(Cc6ccc(C)o6)cc5-c5ccccc5)cc4)CC3)c2c1 [compound 15] | > 30 | > 30 µM and 25.7 µM | 17.2 | 15.7 | -0.08 | 18.6 µM and 17.2 µM | 26.7 | 28 | 0.27 | 22.1 µM | 0.604 | 0.57 µM and 0.597 µM and 0.645 µM | 0.604 ± 0.031 | -0.37 | 1.3 µM and 1.34 µM and 1.56 µM | 1.4 ± 0.112 | 14.3 | 11.5 µM and 13.9 µM and 23.9 µM and 7.94 µM | 4.83 µM and 5.38 µM and 2.87 µM | 4.36 ± 1.08 | 
6 | C=CC(=O)Nc1ccc2[nH]c(=O)n(C3CCN(Cc4ccc(-c5ncc(Cc6cccc(O)c6)cc5-c5ccccc5)cc4)CC3)c2c1 [compound 16] | > 30 | > 30 µM | > 30 | > 30 | -0.07 | > 30 µM | > 30 | > 30 | 0.07 | > 30 µM | 9.48 | 10.2 µM and 9 µM and 9.2 µM | 9.48 ± 0.665 | 1.14 | 0.766 µM and 1.08 µM and 0.599 µM | 0.682 ± 0.083 |  | 16.5 µM and > 30 µM | 4.32 µM and 3.56 µM and 8.14 µM | 5.34 ± 2.01 | EC50 (parental Ba/F3 cells; [24]): > 30 µM; EC50 (parental Ba/F3 cells; [1]): > 30 µM; EC50 BaF3myr-Akt3 (Ba/F3^myr-Akt3 cells; CTG): generally inactive; EC50 (Ba/F3^myr-Akt3 cells; Mus musculus, read-out: EC50 BaF3myr-Akt3, CTG): > 30 µM; EC50 BaF3myr-Akt1 (Ba/F3^myr-Akt1 cells; CTG): generally inactive; EC50 (Ba/F3^myr-Akt1 cells; [22]): > 30 µM; IC50 (Akt2; [13]): 0.682 µM; EC50 (Ba/F3^myr-Akt2 cells; [23]): > 30 µM; IC50 (Akt3; [18]): 5.34 µM
7 | C=CC(=O)Nc1ccc2[nH]c(=O)n(C3CCN(Cc4ccc(-c5ncc(Cc6cccc(N)c6)cc5-c5ccccc5)cc4)CC3)c2c1 [compound 17] | > 30 | > 30 µM | 22 | 21.7 | -0.77 | 17.8 µM and 24.3 µM | > 30 | > 30 | 0.90 | > 30 µM | 2.85 | 2.55 µM and 3.9 µM and 2.12 µM | 2.85 ± 0.758 | 1.33 | 0.136 µM and 0.142 µM and 0.121 µM | 0.133 ± 0.009 | 3.75 | 4.24 µM and 2.81 µM | 1.48 µM and 2.41 µM and 2.43 µM | 2.11 ± 0.441 | EC50 (parental Ba/F3 cells; [24]): > 30 µM; EC50 (parental Ba/F3 cells; [1]): > 30 µM; EC50 (Ba/F3^myr-Akt1 cells; [22]): > 30 µM; IC50 (Akt2; [13]): 0.133 µM; EC50 (Ba/F3^myr-Akt2 cells; [23]): 3.2 µM; IC50 (Akt3; [18]): 2.11 µM
